Test results published in patent US20260262643A1, “HERBICIDAL BENZOXAZINES” (FMC CORPORATION, priority 2022, published 2026).

Key:
barnyardgrass [1] = test: Test C postemergence; assay type: in vivo, Echinochloa crusgalli; settings: 10 days
Procedure, shortened: (§1)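 Soil-applied (pre) and foliar (post, 1–2 leaf, 2–10 cm) sprays; surfactant-containing non-phytotoxic solvent vehicle; loam/sand substrate. Readout: visual % control at 10 d, greenhouse, versus untreated.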

ryegrass, Italian [2] = test: Test C preemergence; assay type: in vivo, Lolium multiflorum; settings: 0 to 100 scale (0 no effect, 100 complete control); for Plant response rating, Ryegrass, Italian: Preemergence, 500 g ai/ha, visual rating after 10 days; for Ryegrass, Italian plant response rating: Test C, preemergence, 125 g ai/ha
Procedure, shortened: as §1

green foxtail [3] = test: Test C postemergence; assay type: in vivo, Setaria viridis; settings: 10 days
Procedure, shortened: as §1

blackgrass [4] = test: Test C postemergence; assay type: in vivo, Alopecurus myosuroides; settings: 10 days
Procedure, shortened: as §1

green foxtail [5] = test: Test C preemergence; assay type: in vivo, Setaria viridis; settings: 0 to 100 scale (0 no effect, 100 complete control); for Plant response rating, Foxtail, Green: Preemergence, 500 g ai/ha, visual rating after 10 days; for Foxtail, Green plant response rating: Test C, preemergence, 125 g ai/ha
Procedure, shortened: as §1

wheat [6] = test: Test C preemergence; assay type: in vivo, Triticum aestivum; settings: 0 to 100 scale (0 no effect, 100 complete control); for Plant response rating, Wheat: Preemergence, 500 g ai/ha, visual rating after 10 days; for Wheat plant response rating: Test C, preemergence, 125 g ai/ha
Procedure, shortened: as §1

ryegrass, Italian [7] = test: Test C postemergence; assay type: in vivo, Lolium multiflorum; settings: 10 days
Procedure, shortened: as §1

ducksalad = test: Test D flooded paddy test; assay type: in vivo, Heteranthera limosa; settings: 250 g ai/ha, applied to paddy water, visual rating after 13 to 14 days, scale 0 to 100 (0 no effect, 100 complete control)
Procedure, shortened: (§2)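 Plants grown to the 2-leaf stage; pots flooded to 3 cm above soil at treatment and held at that depth throughout. Test compounds applied directly to the paddy water. After 13 to 14 days in a greenhouse, response was rated visually versus controls on a 0 (no effect) to 100 (complete control) scale.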

ragweed [8] = test: Test C postemergence; assay type: in vivo, Ambrosia artemisiifolia; settings: 10 days
Procedure, shortened: as §1

corn [9] = test: Test C preemergence; assay type: in vivo, Zea mays; settings: 0 to 100 scale (0 no effect, 100 complete control); for Plant response rating, Corn: Preemergence, 500 g ai/ha, visual rating after 10 days; for Corn plant response rating: Test C, preemergence, 125 g ai/ha
Procedure, shortened: as §1

soybean [10] = test: Test C preemergence; assay type: in vivo, Glycine max; settings: 0 to 100 scale (0 no effect, 100 complete control); for Plant response rating, Soybean: Preemergence, 500 g ai/ha, visual rating after 10 days; for Soybean plant response rating: Test C, preemergence, 125 g ai/ha
Procedure, shortened: as §1

galium = test: Test C postemergence; assay type: in vivo, Galium aparine; settings: 10 days
Procedure, shortened: as §1

ragweed [11] = test: Test C preemergence; assay type: in vivo, Ambrosia artemisiifolia; settings: 0 to 100 scale (0 no effect, 100 complete control); for Plant response rating, Ragweed: Preemergence, 500 g ai/ha, visual rating after 10 days; for Ragweed plant response rating: Test C, preemergence, 125 g ai/ha
Procedure, shortened: as §1

oat, wild [12] = test: Test C postemergence; assay type: in vivo, Avena fatua; settings: 10 days
Procedure, shortened: as §1

blackgrass [13] = test: Test C preemergence; assay type: in vivo, Alopecurus myosuroides; settings: 0 to 100 scale (0 no effect, 100 complete control); for Plant response rating, Blackgrass: Preemergence, 500 g ai/ha, visual rating after 10 days; for Blackgrass plant response rating: Test C, preemergence, 125 g ai/ha
Procedure, shortened: as §1

kochia [14] = test: Test C preemergence; assay type: in vivo, Bassia scoparia; settings: 0 to 100 scale (0 no effect, 100 complete control); for Plant response rating, Kochia: Preemergence, 500 g ai/ha, visual rating after 10 days; for Kochia plant response rating: Test C, preemergence, 125 g ai/ha
Procedure, shortened: as §1

pigweed, palmer [15] = test: Test C postemergence; assay type: in vivo, Amaranthus palmeri; settings: 10 days
Procedure, shortened: as §1

rice = test: Test D flooded paddy test; assay type: in vivo, Oryza sativa; settings: 250 g ai/ha, applied to paddy water, visual rating after 13 to 14 days, scale 0 to 100 (0 no effect, 100 complete control)
Procedure, shortened: as §2

soybean [16] = test: Test C postemergence; assay type: in vivo, Glycine max; settings: 10 days
Procedure, shortened: as §1

corn [17] = test: Test C postemergence; assay type: in vivo, Zea mays; settings: 10 days
Procedure, shortened: as §1

barnyardgrass [18] = test: Test C preemergence; assay type: in vivo, Echinochloa crusgalli; settings: 0 to 100 scale (0 no effect, 100 complete control); for Barnyardgrass plant response rating: 125 g ai/ha, preemergence; for Plant response rating, Barnyardgrass: Preemergence, 500 g ai/ha, visual rating after 10 days
Procedure, shortened: as §1

horseweed = test: Test C postemergence; assay type: in vivo, Erigeron canadensis; settings: 10 days
Procedure, shortened: as §1

wheat [19] = test: Test C postemergence; assay type: in vivo, Triticum aestivum; settings: 10 days
Procedure, shortened: as §1

pigweed, palmer [20] = test: Test C preemergence; assay type: in vivo, Amaranthus palmeri; settings: 0 to 100 scale (0 no effect, 100 complete control); for Plant response rating, Pigweed, Palmer: Preemergence, 500 g ai/ha, visual rating after 10 days; for Pigweed, Palmer plant response rating: Test C, preemergence, 125 g ai/ha
Procedure, shortened: as §1

barnyardgrass [21] = test: Test D flooded paddy test; assay type: in vivo, Echinochloa crus-galli; settings: 250 g ai/ha, applied to paddy water, visual rating after 13 to 14 days, scale 0 to 100 (0 no effect, 100 complete control)
Procedure, shortened: as §2

sedge, umbrella = test: Test D flooded paddy test; assay type: in vivo, Cyperus difformis; settings: 250 g ai/ha, applied to paddy water, visual rating after 13 to 14 days, scale 0 to 100 (0 no effect, 100 complete control)
Procedure, shortened: as §2

oat, wild [22] = test: Test C preemergence; assay type: in vivo, Avena fatua; settings: 0 to 100 scale (0 no effect, 100 complete control); for Plant response rating, Oat, Wild: Preemergence, 500 g ai/ha, visual rating after 10 days; for Oat, Wild plant response rating: Test C, preemergence, 125 g ai/ha
Procedure, shortened: as §1

kochia [23] = test: Test C postemergence; assay type: in vivo, Bassia scoparia; settings: 10 days
Procedure, shortened: as §1

[24] = 125 g ai/ha, postemergence, 0 to 100 scale, 0 no effect, 100 complete control
[25] = Postemergence, 500 g ai/ha, visual 0 to 100 scale (0 no effect, 100 complete control)

SMILES: CC(C)c1ncn(-c2cc(OC(F)F)c(OC(F)F)c(C(=O)N3C[C@H](C)Oc4c(Cl)cccc43)c2)n1 [Compound 150]
- Plant response rating, Barnyardgrass (barnyardgrass [1]; [24]): 10
- Plant response rating, Barnyardgrass (barnyardgrass [1]; [25]): 10
- Plant response rating, Ryegrass, Italian (ryegrass, Italian [2]): 0
- Ryegrass, Italian plant response rating (ryegrass, Italian [2]): 0
- Plant response rating, Foxtail, Green (green foxtail [3]; [24]): 0
- Plant response rating, Foxtail, Green (green foxtail [3]; [25]): 0
- Plant response rating, Blackgrass (blackgrass [4]; [24]): 0
- Plant response rating, Blackgrass (blackgrass [4]; [25]): 0
- Plant response rating, Foxtail, Green (green foxtail [5]): 0
- Foxtail, Green plant response rating (green foxtail [5]): 0
- Plant response rating, Wheat (wheat [6]): 0
- Wheat plant response rating (wheat [6]): 0
- Plant response rating, Ryegrass, Italian (ryegrass, Italian [7]; [24]): 0
- Plant response rating, Ryegrass, Italian (ryegrass, Italian [7]; [25]): 0
- Plant response rating, Ducksalad (Flood) (ducksalad): 0
- Plant response rating, Ragweed (ragweed [8]; [24]): 0
- Plant response rating, Ragweed (ragweed [8]; [25]): 0
- Plant response rating, Corn (corn [9]): 0
- Corn plant response rating (corn [9]): 0
- Plant response rating, Soybean (soybean [10]): 0
- Soybean plant response rating (soybean [10]): 0
- Plant response rating, Galium (galium; [24]): 0
- Plant response rating, Galium (galium; [25]): 0
- Plant response rating, Ragweed (ragweed [11]): 20
- Ragweed plant response rating (ragweed [11]): 0
- Plant response rating, Oat, Wild (oat, wild [12]; [24]): 0
- Plant response rating, Oat, Wild (oat, wild [12]; [25]): 0
- Plant response rating, Blackgrass (blackgrass [13]): 0
- Blackgrass plant response rating (blackgrass [13]): 0
- Plant response rating, Kochia (kochia [14]): 0
- Kochia plant response rating (kochia [14]): 0
- Plant response rating, Pigweed, Palmer (pigweed, palmer [15]; [24]): 0
- Plant response rating, Pigweed, Palmer (pigweed, palmer [15]; [25]): 30
- Plant response rating, Rice (Flood) (rice): 0
- Plant response rating, Soybean (soybean [16]; [24]): 20
- Plant response rating, Soybean (soybean [16]; [25]): 50
- Plant response rating, Corn (corn [17]; [24]): 0
- Plant response rating, Corn (corn [17]; [25]): 0
- Barnyardgrass plant response rating (barnyardgrass [18]): 0
- Plant response rating, Barnyardgrass (barnyardgrass [18]): 0
- Plant response rating, Horseweed (horseweed; [24]): 0
- Plant response rating, Horseweed (horseweed; [25]): 0
- Plant response rating, Wheat (wheat [19]; [24]): 0
- Plant response rating, Wheat (wheat [19]; [25]): 0
- Plant response rating, Pigweed, Palmer (pigweed, palmer [20]): 0
- Pigweed, Palmer plant response rating (pigweed, palmer [20]): 0
- Plant response rating, Barnyardgrass (Flood) (barnyardgrass [21]): 0
- Plant response rating, Sedge, Umbrella (Flood) (sedge, umbrella): 0
- Plant response rating, Oat, Wild (oat, wild [22]): 0
- Oat, Wild plant response rating (oat, wild [22]): 0
- Plant response rating, Kochia (kochia [23]; [24]): 0
- Plant response rating, Kochia (kochia [23]; [25]): 20

SMILES: Cc1c(F)cc(-n2cnc(C(C)C)n2)cc1C(=O)N1C[C@H](C)Oc2c(Cl)cccc21 [Compound 151]
- Plant response rating, Barnyardgrass (barnyardgrass [1]; [24]): 70
- Plant response rating, Barnyardgrass (barnyardgrass [1]; [25]): 100
- Plant response rating, Ryegrass, Italian (ryegrass, Italian [2]): 90
- Ryegrass, Italian plant response rating (ryegrass, Italian [2]): 80
- Plant response rating, Foxtail, Green (green foxtail [3]; [24]): 80
- Plant response rating, Foxtail, Green (green foxtail [3]; [25]): 90
- Plant response rating, Blackgrass (blackgrass [4]; [24]): 80
- Plant response rating, Blackgrass (blackgrass [4]; [25]): 80
- Plant response rating, Foxtail, Green (green foxtail [5]): 100
- Foxtail, Green plant response rating (green foxtail [5]): 100
- Plant response rating, Wheat (wheat [6]): 80
- Wheat plant response rating (wheat [6]): 80
- Plant response rating, Ryegrass, Italian (ryegrass, Italian [7]; [24]): 60
- Plant response rating, Ryegrass, Italian (ryegrass, Italian [7]; [25]): 80
- Plant response rating, Ducksalad (Flood) (ducksalad): 50
- Plant response rating, Ragweed (ragweed [8]; [24]): 70
- Plant response rating, Ragweed (ragweed [8]; [25]): 90
- Plant response rating, Corn (corn [9]): 50
- Corn plant response rating (corn [9]): 20
- Plant response rating, Soybean (soybean [10]): 90
- Soybean plant response rating (soybean [10]): 50
- Plant response rating, Galium (galium; [24]): 100
- Plant response rating, Galium (galium; [25]): 100
- Plant response rating, Ragweed (ragweed [11]): 80
- Ragweed plant response rating (ragweed [11]): 30
- Plant response rating, Oat, Wild (oat, wild [12]; [24]): 20
- Plant response rating, Oat, Wild (oat, wild [12]; [25]): 50
- Plant response rating, Blackgrass (blackgrass [13]): 90
- Blackgrass plant response rating (blackgrass [13]): 50
- Plant response rating, Kochia (kochia [14]): 100
- Kochia plant response rating (kochia [14]): 100
- Plant response rating, Pigweed, Palmer (pigweed, palmer [15]; [24]): 90
- Plant response rating, Pigweed, Palmer (pigweed, palmer [15]; [25]): 100
- Plant response rating, Rice (Flood) (rice): 45
- Plant response rating, Soybean (soybean [16]; [24]): 100
- Plant response rating, Soybean (soybean [16]; [25]): 100
- Plant response rating, Corn (corn [17]; [24]): 60
- Plant response rating, Corn (corn [17]; [25]): 90
- Barnyardgrass plant response rating (barnyardgrass [18]): 90
- Plant response rating, Barnyardgrass (barnyardgrass [18]): 100
- Plant response rating, Horseweed (horseweed; [24]): 40
- Plant response rating, Horseweed (horseweed; [25]): 80
- Plant response rating, Wheat (wheat [19]; [24]): 20
- Plant response rating, Wheat (wheat [19]; [25]): 30
- Plant response rating, Pigweed, Palmer (pigweed, palmer [20]): 100
- Pigweed, Palmer plant response rating (pigweed, palmer [20]): 100
- Plant response rating, Barnyardgrass (Flood) (barnyardgrass [21]): 40
- Plant response rating, Sedge, Umbrella (Flood) (sedge, umbrella): 75
- Plant response rating, Oat, Wild (oat, wild [22]): 90
- Oat, Wild plant response rating (oat, wild [22]): 30
- Plant response rating, Kochia (kochia [23]; [24]): 90
- Plant response rating, Kochia (kochia [23]; [25]): 100
